Assay results reported in patent US20130303566A1, “METHOD FOR TREATING MACULAR DEGENERATION” (DAVID W. HILL, priority 2012, published 2013).

Key:
patients with dry AMD = conditions: 60 mcg PGE1 as alprostadil, intravenous infusion daily for 15 days, 15 patients with dry AMD; cited from earlier work
patient with AMD = conditions: human, in vivo
Procedure: To test the hypothesis that vasodilators can successfully treat AMD, TriMix injectable blend was obtained containing, in 10 ml of water, 0.4 ml ethanol, 0.3 g papaverine hydrochloride, 0.02 g phentolamine mesylate and 200 mcg prostaglandin. E1 (PGE1 or “alprostadil”), with 0.01 ml benzyl alcohol. […] The following example explores the role of administering Trimix to a patient with AMD.
Initial doses were 1 mcg alprostadil, but were upped to 2 mcg of alprostadil for a period of time and then lowered to the original dose. Thus, on a daily basis, 0.85-0.10 mL of the above TriMix blend can be injected into the patient, delivering 1-2 mcg alprostadil, 0.1-0.2 mg phentolamine and 1.5-3.0 mg of papaverine.

damaged macular area = test system: damaged macular area; set-up: species or system human; conditions: in vivo

SMILES | trial outcome (patients with dry AMD) | tolerability of high doses (patient with AMD) | effect on vision (damaged macular area)
CCCCC[C@H](O)/C=C/[C@H]1[C@H](O)CC(=O)[C@@H]1CCCCCCC(=O)O [PGE1, (11α,13E,15S)-11,15-Dihydroxy-9-osoprost-13-en-1-oic acid] | lack of statistically significant results | without any problems | –
CC(=O)Nc1ccc(O)cc1 [acetaminophen] | – | – | cause the mask of the damaged macular area to appear colored, such as bright red, can cause misty vision
CC(=O)Oc1ccccc1C(=O)O [aspirin] | – | – | cause the mask of the damaged macular area to appear colored, such as bright red, can cause misty vision
COc1ccc2cc([C@H](C)C(=O)O)ccc2c1 [naproxen sodium] | – | – | cause the mask of the damaged macular area to appear colored, such as bright red, can cause misty vision
